Structures are written as SMILES. Values after ≈ are worked out from the molar mass of the structure shown.

This assay relates to Histoplasma capsulatum. In words: Antifungal activity against Histoplasma capsulatum G217B after 10 to 14 days by microscopic method. Type of assay: functional, organism-based.
For `CC(C)=CCc1cc2c(c3c1[C@@H]1C[C@H](C3=O)[C@@H]1C)OC(C)(C)[C@@H](O)C2=O`, the half-inhibitory concentration (IC50) – broadly, the concentration at which inhibition is half-maximal – is 32 µg/mL (≈ 90.3 µM).
In the case of `CCC(C)n1ncn(-c2ccc(N3CCN(c4ccc(OCC5COC(Cn6cncn6)(c6ccc(Cl)cc6Cl)O5)cc4)CC3)cc2)c1=O` (stereo unspecified) [ITRACONAZOLE] it was 0.001 µg/mL (≈ 0.00142 µM).
In the case of `C/C=C/C=C/c1c(CC=C(C)C)cc2c(c1CO)OC(C)(C)C(O)C2=O` (stereo unspecified) it was 16 µg/mL (≈ 44.9 µM); in that of `CC(C)=CCc1cc2c(c3c1[C@@H]1C[C@H](C3=O)[C@@H]1C)OC(C)(C)[C@H](O)C2=O`, 64 µg/mL (≈ 181 µM).
In the case of `C[C@@H]1[C@H](O)[C@@H](C)/C=C/C=C/C=C/C=C/C=C/C=C/C=C/[C@H](O[C@@H]2O[C@H](C)[C@@H](O)[C@H](N)[C@@H]2O)C[C@@H]2O[C@](O)(C[C@@H](O)C[C@@H](O)[C@H](O)CC[C@@H](O)C[C@@H](O)CC(=O)O[C@H]1C)C[C@H](O)[C@H]2C(=O)O` [AMPHOTERICIN B] it was 0.5 µg/mL (≈ 0.541 µM).
`C/C=C/C=C/c1c(CC=C(C)C)cc(CC=C(C)C)c(O)c1CO` gave an IC50 of 8 µg/mL (≈ 24.5 µM).

For the origin of these results see ChEMBL document CHEMBL4392879, “Secondary Metabolites of Onygenales Fungi Exemplified by Aioliomyces pyridodomos” (J Nat Prod, 2019).
